Measured values as given in ChEMBL document CHEMBL5726951, “Small molecule inhibitors of the JAK family of kinases” (2019).

Key:
[1] = target: Non-receptor tyrosine-protein kinase TYK2 (Homo sapiens, UniProt P29597, C1142A/C936A); assay: (§1) Enzymatic Inhibition Assay: Substrate (NH2-[…]-CO2), internal standard peptide (NH2-[…]-CO2) and product peptide (for standard curve only) (NH2-[…]-Pi-FELVKK-CO2), were purchased from AnaSpec (Fremont, Calif., USA). JAK1-JH1JH2 (574-1154 with a His-GST Tag and a C-terminal tev (ENLYFQ-G) cleavage site), JAK3-JH1JH2 (512-1124 with a GST Tag and a C-terminal tev (ENLYFQ-G) cleavage site), and Tyk2-JH1JH2 (8H_tev_580-1182-C936A-C1142A with a C-terminal tev (ENLYFQ-G) cleavage site) were purified internally. JAK2-JH1JH2 (532-1132 with a GST tag and C-terminal tev (ENLYFQ-G) cleavage site), was purchased from Invitrogen. LC/MS grade water and acetonitrile (ACN), were purchased from HoneyWell, Burdick & Jackson (Muskegon, Mich., USA). Dimethylsulfoxide 99.8% (DMSO) and trifluoroacetic acid 99.5% (TFA) were purchased from EMD Chemical (Gibbstown, N.J., USA). Adenosine triphosphate (ATP), 4-morpholinepropanesulfonic acid (MOPS), magnesium chloride (MgCl2), ethylenediaminetetraacetic acid (EDTA), dithiothreitol (DTT), formic acid>95% (FA) and Tween-20 were purchased from Sigma (St Louis, Mo., USA). 384-well polypropylene plates, Cat#781280 were purchased from Greiner (Monroe, N.C.), RapidFire™ cartridge A C4 Column (Agilent Technologies, Santa Clara, Calif.).The HTMS experiments were performed in positive ionization mode on a RapidFire 300 instrument (Agilent Technologies, Santa Clara, Calif.), coupled with an ABSiex QTrap 4000 system with an Electrospray Ionization source (RF-MS) (Concord, ON, Canada). The RapidFire system was run with 3 Agilent 1200 series isocratic pumps Agilent Technologies (Santa Clara, Calif.) and one peristaltic pump model ISM832C from Ismatec (Wertheim, Germany). The entire system was operated using the RapidFire software interfaced with Analyst software for the mass spectrometer.Assay Protocol11-point dosing series were made for each compound by serially diluting 1:3 or 1:4 in DMSO, with point 12 being a DMSO control. From the serial dilution plates, sample was transferred to a 384 wells assay plate (#781280, Greiner, Monroe, N.C.) using Labcyte Echo (Sunnyvale, Calif.), or Biosero ATS (San Diego, Calif.). The compounds were tested in duplicate. Column 12 was used for positive controls, and column 24 contained negative controls with no enzyme added. A compound from our internal collection, with inhibitory activity for JAK isoforms, was used as a reference compound. The final concentration of DMSO was ≤0.25% in a 20 μL reaction. The enzyme reaction was initiated by the addition of 10 μL of enzyme and ATP mixture to 10 μL of substrate solution prepared in reaction buffer (50 mM MOPS pH 7.5, 10 mM MgCl2, 1 mM EDTA, 2 mM DTT, 0.002% Tween-20). The Tyk2 enzyme was pre-incubated with 2 mM ATP for 30 min prior to the reaction initiation. Immediately after the addition of the enzyme to the reaction mixture, the plate was centrifuged at 1000 rpm for 1 minute and incubated at 25° C. for 45 minutes for JAK3 and 90 minutes for JAK1, JAK2 and Tyk2. The reaction was quenched by the addition of 20 μL of 0.5% TFA containing 0.15 μM of internal standard peptide using Multidrop Combi reagent dispenser (Thermo Scientific, Waltham, Mass.). Several wells in column 24 were typically used for the product standard curve. After the quench, the assay plate was centrifuged at 3000 rpm for 3 minutes and sealed with pierceable aluminum foil (Cat#06644-001, Agilent) using a PlateLoc (Agilent Technologies, Santa Clara, Calif.). The plates then were transferred on to the RapidFire for the MS analysis. Compound inhibition was assessed by a decrease of the phosphorylated product levels in sample wells compared to the non-inhibited enzyme reaction.
Chain of Non-receptor tyrosine-protein kinase TYK2 (P29597 whole entry C936A/C1142A): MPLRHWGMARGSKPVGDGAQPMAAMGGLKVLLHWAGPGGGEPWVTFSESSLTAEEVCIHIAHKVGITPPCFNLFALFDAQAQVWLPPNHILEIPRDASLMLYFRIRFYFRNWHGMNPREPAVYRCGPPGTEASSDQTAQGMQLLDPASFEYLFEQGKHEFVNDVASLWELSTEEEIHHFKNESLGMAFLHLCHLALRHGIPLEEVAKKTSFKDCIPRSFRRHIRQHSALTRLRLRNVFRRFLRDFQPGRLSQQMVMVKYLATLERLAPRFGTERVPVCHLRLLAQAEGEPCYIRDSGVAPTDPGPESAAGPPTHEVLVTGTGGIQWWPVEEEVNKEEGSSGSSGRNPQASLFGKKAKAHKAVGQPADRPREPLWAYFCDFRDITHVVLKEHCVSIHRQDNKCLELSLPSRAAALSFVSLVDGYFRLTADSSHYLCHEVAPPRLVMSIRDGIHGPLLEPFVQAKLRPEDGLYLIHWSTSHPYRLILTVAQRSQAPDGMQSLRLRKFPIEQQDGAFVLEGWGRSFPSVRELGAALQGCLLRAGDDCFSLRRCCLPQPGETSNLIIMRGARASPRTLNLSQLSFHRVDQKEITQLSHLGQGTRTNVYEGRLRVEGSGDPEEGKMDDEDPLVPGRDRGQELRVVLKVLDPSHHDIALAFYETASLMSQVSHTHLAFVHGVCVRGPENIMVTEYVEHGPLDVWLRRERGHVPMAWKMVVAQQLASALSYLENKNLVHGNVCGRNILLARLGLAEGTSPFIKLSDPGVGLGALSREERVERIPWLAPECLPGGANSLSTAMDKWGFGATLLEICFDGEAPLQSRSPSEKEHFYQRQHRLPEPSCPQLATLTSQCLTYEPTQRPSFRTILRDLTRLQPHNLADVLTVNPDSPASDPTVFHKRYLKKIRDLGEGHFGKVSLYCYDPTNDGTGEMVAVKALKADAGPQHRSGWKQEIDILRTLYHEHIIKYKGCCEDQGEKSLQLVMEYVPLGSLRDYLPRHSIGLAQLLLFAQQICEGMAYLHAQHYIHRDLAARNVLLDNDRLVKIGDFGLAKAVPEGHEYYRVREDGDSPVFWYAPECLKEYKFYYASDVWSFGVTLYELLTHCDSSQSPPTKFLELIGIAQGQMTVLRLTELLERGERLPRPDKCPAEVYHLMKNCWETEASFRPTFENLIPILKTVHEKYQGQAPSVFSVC

[2] = target: Tyrosine-protein kinase JAK1 (Homo sapiens, UniProt P23458); assay: as §1
Chain of Tyrosine-protein kinase JAK1 (P23458 whole entry): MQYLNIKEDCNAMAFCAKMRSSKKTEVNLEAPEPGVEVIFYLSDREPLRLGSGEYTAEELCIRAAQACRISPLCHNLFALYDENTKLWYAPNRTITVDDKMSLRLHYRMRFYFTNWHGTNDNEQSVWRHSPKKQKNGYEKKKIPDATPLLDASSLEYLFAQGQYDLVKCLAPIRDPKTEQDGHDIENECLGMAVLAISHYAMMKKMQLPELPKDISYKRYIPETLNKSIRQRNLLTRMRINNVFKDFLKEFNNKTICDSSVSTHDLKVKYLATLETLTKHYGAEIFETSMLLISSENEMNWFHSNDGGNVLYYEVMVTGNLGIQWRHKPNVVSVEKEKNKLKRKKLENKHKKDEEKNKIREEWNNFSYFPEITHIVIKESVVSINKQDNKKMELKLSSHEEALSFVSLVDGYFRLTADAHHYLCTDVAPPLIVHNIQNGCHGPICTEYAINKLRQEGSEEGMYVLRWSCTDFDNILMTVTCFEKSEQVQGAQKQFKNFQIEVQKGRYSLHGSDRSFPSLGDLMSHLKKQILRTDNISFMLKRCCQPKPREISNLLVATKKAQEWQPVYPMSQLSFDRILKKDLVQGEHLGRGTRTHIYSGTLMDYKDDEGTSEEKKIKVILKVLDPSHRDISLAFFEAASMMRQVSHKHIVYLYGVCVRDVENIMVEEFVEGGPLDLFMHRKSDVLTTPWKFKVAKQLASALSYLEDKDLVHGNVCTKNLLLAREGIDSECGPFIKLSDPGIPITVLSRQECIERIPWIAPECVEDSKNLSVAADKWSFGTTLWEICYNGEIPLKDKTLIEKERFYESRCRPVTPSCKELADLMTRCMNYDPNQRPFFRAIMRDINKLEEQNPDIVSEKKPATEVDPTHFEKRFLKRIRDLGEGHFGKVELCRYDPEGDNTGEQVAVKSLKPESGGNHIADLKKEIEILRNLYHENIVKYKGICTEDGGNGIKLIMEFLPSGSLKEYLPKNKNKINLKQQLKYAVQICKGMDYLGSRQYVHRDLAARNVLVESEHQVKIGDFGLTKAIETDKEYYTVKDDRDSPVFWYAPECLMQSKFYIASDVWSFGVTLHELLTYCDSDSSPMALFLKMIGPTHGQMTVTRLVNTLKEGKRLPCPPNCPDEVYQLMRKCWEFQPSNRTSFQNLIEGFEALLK

[3] = target: T1, Tyrosine-protein kinase JAK3 (Homo sapiens, UniProt P52333); assay: as §1
T1 sequence (P52333 whole entry): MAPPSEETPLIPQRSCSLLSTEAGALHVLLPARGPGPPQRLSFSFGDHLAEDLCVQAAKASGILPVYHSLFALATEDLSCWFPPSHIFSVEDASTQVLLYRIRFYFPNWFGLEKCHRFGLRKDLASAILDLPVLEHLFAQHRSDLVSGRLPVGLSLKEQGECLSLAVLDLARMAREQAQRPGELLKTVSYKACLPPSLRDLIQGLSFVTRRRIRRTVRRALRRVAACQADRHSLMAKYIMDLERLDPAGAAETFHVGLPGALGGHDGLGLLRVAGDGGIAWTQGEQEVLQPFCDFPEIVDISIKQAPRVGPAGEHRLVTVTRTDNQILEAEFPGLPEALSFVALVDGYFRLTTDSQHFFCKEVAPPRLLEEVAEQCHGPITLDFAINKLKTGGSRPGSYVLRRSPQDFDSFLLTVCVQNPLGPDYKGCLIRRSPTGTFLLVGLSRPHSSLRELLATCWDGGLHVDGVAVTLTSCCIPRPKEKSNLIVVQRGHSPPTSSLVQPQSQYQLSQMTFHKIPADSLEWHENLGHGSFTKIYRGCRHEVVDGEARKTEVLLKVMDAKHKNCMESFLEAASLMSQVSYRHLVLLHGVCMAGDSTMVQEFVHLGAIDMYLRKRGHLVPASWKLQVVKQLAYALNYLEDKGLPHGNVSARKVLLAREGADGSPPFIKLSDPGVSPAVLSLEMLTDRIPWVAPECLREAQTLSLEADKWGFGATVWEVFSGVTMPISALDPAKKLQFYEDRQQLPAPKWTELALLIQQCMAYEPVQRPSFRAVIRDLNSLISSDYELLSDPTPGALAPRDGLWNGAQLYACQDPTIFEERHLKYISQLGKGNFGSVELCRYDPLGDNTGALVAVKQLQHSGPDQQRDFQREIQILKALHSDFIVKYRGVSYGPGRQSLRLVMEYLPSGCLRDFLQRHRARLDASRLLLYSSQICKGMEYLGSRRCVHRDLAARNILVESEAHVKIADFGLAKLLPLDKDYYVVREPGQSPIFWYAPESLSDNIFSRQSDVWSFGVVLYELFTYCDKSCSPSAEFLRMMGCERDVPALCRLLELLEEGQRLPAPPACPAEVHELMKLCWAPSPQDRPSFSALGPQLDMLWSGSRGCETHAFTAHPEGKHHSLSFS

[4] = target: Tyrosine-protein kinase JAK2 (Homo sapiens, UniProt O60674); assay: LC/MS grade water and acetonitrile (ACN), were purchased from HoneyWell, Burdick & Jackson (Muskegon, Mich., USA). […] The compounds were tested in duplicate. Column 12 was used for positive controls, and column 24 contained negative controls with no enzyme added. A compound from our internal collection, with inhibitory activity for JAK isoforms, was used as a reference compound. […] The enzyme reaction was initiated by the addition of 10 μL of enzyme and ATP mixture to 10 μL of substrate solution prepared in reaction buffer (50 mM MOPS pH 7.5, 10 mM MgCl2, 1 mM EDTA, 2 mM DTT, 0.002% Tween-20). The Tyk2 enzyme was pre-incubated with 2 mM ATP for 30 min prior to the reaction initiation. Immediately after the addition of the enzyme to the reaction mixture, the plate was centrifuged at 1000 rpm for 1 minute and incubated at 25° C. for 45 minutes for JAK3 and 90 minutes for JAK1, JAK2 and Tyk2. […] The plates then were transferred on to the RapidFire for the MS analysis. Compound inhibition was assessed by a decrease of the phosphorylated product levels in sample wells compared to the non-inhibited enzyme reaction.
Chain of Tyrosine-protein kinase JAK2 (O60674 whole entry, canonical isoform): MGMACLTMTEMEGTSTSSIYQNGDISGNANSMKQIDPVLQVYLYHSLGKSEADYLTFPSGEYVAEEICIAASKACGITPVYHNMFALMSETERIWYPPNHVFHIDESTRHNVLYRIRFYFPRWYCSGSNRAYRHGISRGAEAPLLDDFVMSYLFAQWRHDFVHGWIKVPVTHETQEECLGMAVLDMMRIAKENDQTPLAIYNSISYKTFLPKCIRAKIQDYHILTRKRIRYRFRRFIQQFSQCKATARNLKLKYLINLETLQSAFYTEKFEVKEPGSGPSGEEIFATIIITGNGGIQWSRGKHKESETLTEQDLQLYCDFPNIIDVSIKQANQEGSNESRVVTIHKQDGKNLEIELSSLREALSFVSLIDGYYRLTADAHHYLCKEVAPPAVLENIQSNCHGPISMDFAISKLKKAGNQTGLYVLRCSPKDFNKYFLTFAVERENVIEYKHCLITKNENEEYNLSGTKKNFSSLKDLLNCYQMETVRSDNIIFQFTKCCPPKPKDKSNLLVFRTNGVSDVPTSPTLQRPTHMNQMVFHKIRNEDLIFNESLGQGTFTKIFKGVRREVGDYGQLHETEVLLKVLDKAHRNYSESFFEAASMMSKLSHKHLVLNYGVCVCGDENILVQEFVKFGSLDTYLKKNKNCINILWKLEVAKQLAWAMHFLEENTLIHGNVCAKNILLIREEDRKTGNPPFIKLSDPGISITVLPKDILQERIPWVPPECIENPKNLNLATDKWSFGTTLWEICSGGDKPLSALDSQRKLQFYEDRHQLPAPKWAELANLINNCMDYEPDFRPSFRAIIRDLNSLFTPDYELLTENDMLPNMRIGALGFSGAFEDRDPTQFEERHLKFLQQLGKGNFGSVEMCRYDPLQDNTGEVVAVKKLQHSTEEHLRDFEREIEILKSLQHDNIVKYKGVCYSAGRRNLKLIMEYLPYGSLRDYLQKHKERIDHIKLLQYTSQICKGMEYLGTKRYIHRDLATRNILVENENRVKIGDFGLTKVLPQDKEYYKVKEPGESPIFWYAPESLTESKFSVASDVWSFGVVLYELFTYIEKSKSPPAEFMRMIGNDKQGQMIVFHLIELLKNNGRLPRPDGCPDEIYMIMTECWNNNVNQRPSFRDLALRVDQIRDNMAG

| SMILES | IC50 [1] | IC50 [2] | IC50 [3] | IC50 [4] |
| --- | --- | --- | --- | --- |
| Cc1nc2cnc3[nH]ccc3c2n1[C@H]1CC[C@H](CC#N)CC1 | 0.9 nM | < 0.2 nM | 12.4 nM | < 0.2 nM |
| N#CC[C@H]1CC[C@H](n2c(CO)nc3cnc4[nH]ccc4c32)CC1 | < 0.2 nM | < 0.2 nM | 13.4 nM | < 0.2 nM |
